This is an account of results in US20240317777A1, “NOVEL MACROCYCLIC AMINOPYRAZOLE COMPOUNDS AS CDK2 INHIBITORS” (Accutar Biotechnology Inc., priority 2023, published 2024).

Where two headings read alike, the source gives them in different places. Some results are limits rather than exact numbers.

The target in one assay is CDK9-CYCLIN T1 (Homo sapiens, UniProt P50750). Put plainly: CDK protein kinase inhibition by ADP-Glo assay, CDK9-CYCLIN T1. Type of assay: biochemical. To be noted: for IC50: read-out: CDK9-CYCLINT1, IC50; for CDK2 Fold selectivity, CDK9: CDK2 versus CDK9. The method, then: (§1) CDK Protein Kinase Inhibition by ADP-Glo Assay
(§2) This ADP-Glo assay measures ADP formed from a kinase reaction and indirectly quantifies the phosphorylation of peptide substrates by the CDK/cyclin protein complexes. The typical assays were carried out in Nanosyn by combining kinase/cyclin complexes, substrates, compounds, and cofactors (ATP and Mg2+) in a well of a 384-well microtiter plate (Corning 3824) and incubating at 22° C. (Table 1). At the end of the incubation, the reaction is quenched, and conversion is detected by luminescence using the Promega ADP-Glo™ Kinase Assay kit (catalog #V9102).
(§3) Final assay buffer mixture contains: • 100 mM HEPES, pH 7.5 • 0.1% BSA • 0.01% Triton X-100 • 1 mM DTT • 5 mM MgCl2 • 10 μM Sodium Orthovanadate • 100 μM Beta-Glycerophosphate • 1000 μM Ultra Pure ATP (provided in the Promega ADP-Glo™ Kinase Assay kit) • 1% DMSO (from compound)
(§4) Upon completion, 5 μL of the ADP Glo reagent was added to each well and the plate was further incubated at room temperature for 45 minutes. 10 uL of the Kinase Detection Reagent was subsequently added to each well. After 10 minutes of incubation, the plate was read and analyzed on the BioTek Synergy microplate reader using BioTek Gen5 software.
(ADP-Glo first removes unused ATP, then detects ADP through luciferase.)

The target of the next assay is CDK1-CYCLIN B (Homo sapiens, UniProt P06493). Put plainly: CDK protein kinase inhibition by ADP-Glo assay, CDK1-CYCLIN B. Type of assay: biochemical. To be noted: for IC50: read-out: CDK1-CYCLINB, IC50; for CDK2 Fold selectivity, CDK1: CDK2 versus CDK1. The method, then: as §1, §2, §3, §4
Assay [1] has as its system CCNE1-amplified OVCAR3 cells. Put plainly: Cell growth inhibition of CCNE1-amplified OVCAR3 cells (CellTiter-Glo). Type of assay: cell-based. To be noted: Homo sapiens, OVCAR-3, 144 h, 6 days. Put shortly:
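Growth read-out was CellTiter-Glo luminescence, taken after 10 min at room temperature at the end of a 6-day compound exposure at 37 °C. Compounds were diluted from DMSO stocks across various concentrations.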
(In general: In ATP-based viability assays light output follows the ATP content of the culture.)

The next assay has as its system CCNE1-normal SKOV3 cells. Put plainly: Cell growth inhibition of CCNE1-normal SKOV3 cells (CellTiter-Glo). To be noted: Homo sapiens, SK-OV-3, 144 h, 6 days. Format: cell-based. Put shortly:
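Growth was measured by CellTiter-Glo luminescence after 6 days' compound exposure at 37 °C. Cells were plated one day before dosing at 1000 per well in medium with 10% FBS, and compounds were diluted from DMSO stocks.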

Assay [2] relates to Phospho-Rb (Ser807/811) in OVCAR3 cells. Briefly: Phospho-Rb expression inhibition in OVCAR3 cells quantified by In Cell Western. Format: cell-based. To be noted: Homo sapiens, OVCAR-3, 24 hours, read-out: OVCAR-3 pRb IC50. A digest of the protocol:
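In-cell western: after 24 h compound exposure at 37° C, fixed OVCAR3 cells co-stained for pRb Ser807/811 (800 nm channel) and total Rb (680 nm channel), imaged by LI-COR Odyssey.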

For a further assay, the target named is CDK2-CYCLIN E1 (Homo sapiens, UniProt P24941). Briefly: CDK protein kinase inhibition by ADP-Glo assay, CDK2-CYCLIN E1. Format: biochemical. To be noted: read-out: CDK2-CYCLINE, IC50. Here is the method:
as §1, §2, §3, §4

In the next assay the target is CDK4-CYCLIN D1 (Homo sapiens, UniProt P11802). Put plainly: CDK protein kinase inhibition by ADP-Glo assay, CDK4-CYCLIN D1. Type of assay: biochemical. To be noted: for IC50: read-out: CDK4-CYCLIND1, IC50; for CDK2 Fold selectivity, CDK4: CDK2 versus CDK4. The method, then:
as §1, §2, §3, §4

A further assay addresses CDK6-CYCLIN D3 (Homo sapiens, UniProt Q00534). Briefly: CDK protein kinase inhibition by ADP-Glo assay, CDK6-CYCLIN D3. Type of assay: biochemical. To be noted: for IC50: read-out: CDK6-CYCLIND3, IC50; for CDK2 Fold selectivity, CDK6: CDK2 versus CDK6. Here is the method:
as §1, §2, §3, §4

[3] abbreviates: Table 37, recombinant CDK kinase.

Chain of CDK9-CYCLIN T1 (P50750 whole entry): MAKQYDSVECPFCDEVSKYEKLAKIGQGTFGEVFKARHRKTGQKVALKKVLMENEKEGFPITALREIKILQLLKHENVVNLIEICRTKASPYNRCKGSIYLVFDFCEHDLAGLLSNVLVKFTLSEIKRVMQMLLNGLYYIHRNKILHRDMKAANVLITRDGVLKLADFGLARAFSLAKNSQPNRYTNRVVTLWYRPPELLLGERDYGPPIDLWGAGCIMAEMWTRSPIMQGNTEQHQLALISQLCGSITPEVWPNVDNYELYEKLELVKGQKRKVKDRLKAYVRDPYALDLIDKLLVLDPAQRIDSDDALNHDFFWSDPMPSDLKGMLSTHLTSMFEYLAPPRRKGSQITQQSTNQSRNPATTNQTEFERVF
Chain of CDK9-CYCLIN T1 (O60563 whole entry partner): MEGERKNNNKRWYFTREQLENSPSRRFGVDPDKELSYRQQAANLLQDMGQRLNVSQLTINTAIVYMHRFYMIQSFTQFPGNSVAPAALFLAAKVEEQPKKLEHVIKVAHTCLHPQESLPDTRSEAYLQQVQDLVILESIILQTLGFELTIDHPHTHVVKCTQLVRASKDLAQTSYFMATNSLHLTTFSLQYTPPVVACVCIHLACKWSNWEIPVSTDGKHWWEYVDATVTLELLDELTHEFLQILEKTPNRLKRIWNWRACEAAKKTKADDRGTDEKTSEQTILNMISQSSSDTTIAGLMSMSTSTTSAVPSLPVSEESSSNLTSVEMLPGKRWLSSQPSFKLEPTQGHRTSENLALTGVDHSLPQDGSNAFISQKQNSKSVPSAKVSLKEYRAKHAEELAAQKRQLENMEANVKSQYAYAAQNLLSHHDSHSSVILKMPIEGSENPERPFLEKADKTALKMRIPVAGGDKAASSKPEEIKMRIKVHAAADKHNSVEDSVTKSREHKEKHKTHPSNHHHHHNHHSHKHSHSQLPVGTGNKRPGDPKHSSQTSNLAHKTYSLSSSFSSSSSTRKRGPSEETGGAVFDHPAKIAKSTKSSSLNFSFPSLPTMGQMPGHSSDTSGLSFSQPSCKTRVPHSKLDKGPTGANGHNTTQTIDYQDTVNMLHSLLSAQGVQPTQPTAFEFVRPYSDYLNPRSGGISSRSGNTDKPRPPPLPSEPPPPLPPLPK
Chain of CDK6-CYCLIN D3 (Q00534 whole entry): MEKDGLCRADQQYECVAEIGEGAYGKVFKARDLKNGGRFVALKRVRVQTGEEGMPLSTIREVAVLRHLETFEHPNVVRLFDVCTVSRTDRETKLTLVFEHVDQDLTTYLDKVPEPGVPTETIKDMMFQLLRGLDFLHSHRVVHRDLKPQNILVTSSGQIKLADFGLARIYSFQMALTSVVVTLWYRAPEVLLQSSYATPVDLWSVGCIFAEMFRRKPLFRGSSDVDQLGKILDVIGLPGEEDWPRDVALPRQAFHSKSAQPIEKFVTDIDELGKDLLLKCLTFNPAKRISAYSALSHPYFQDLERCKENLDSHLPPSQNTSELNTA
Chain of CDK6-CYCLIN D3 (P30281 whole entry partner): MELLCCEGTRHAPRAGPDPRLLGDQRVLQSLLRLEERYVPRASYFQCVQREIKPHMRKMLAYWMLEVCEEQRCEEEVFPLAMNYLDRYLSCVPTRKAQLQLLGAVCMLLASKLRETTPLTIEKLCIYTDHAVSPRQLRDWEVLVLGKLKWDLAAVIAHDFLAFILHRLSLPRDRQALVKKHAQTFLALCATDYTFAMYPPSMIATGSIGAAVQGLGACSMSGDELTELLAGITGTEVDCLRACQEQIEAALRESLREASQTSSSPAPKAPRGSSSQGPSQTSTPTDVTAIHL
Chain of CDK4-CYCLIN D1 (P11802 whole entry): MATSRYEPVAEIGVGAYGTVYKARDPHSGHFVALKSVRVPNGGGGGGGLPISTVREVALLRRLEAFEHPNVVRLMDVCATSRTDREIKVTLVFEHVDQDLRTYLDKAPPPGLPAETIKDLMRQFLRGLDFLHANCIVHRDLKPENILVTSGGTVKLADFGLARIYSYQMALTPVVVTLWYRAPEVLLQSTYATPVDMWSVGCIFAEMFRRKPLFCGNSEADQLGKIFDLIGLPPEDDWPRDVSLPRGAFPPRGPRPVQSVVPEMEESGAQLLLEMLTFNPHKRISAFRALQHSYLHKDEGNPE
Chain of CDK4-CYCLIN D1 (P24385 whole entry partner): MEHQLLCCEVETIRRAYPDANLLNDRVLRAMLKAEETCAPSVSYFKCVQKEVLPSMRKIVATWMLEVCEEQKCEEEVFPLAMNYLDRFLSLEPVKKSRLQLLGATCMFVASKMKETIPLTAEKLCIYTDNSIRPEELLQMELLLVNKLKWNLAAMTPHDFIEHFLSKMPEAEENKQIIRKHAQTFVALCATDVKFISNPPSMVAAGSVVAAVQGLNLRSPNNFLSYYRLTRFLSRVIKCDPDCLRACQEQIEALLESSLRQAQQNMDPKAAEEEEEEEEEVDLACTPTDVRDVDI
Chain of CDK1-CYCLIN B (P06493 whole entry): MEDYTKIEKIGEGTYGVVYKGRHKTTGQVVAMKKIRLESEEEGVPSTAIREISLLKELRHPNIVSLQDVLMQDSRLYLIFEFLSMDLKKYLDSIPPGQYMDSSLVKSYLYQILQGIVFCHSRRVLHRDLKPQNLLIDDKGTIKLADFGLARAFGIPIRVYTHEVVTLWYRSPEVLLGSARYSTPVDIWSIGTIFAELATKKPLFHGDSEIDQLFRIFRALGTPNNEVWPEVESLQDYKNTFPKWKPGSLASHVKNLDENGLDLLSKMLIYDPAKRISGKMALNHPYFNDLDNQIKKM
Chain of CDK1-CYCLIN B (P14635 whole entry partner): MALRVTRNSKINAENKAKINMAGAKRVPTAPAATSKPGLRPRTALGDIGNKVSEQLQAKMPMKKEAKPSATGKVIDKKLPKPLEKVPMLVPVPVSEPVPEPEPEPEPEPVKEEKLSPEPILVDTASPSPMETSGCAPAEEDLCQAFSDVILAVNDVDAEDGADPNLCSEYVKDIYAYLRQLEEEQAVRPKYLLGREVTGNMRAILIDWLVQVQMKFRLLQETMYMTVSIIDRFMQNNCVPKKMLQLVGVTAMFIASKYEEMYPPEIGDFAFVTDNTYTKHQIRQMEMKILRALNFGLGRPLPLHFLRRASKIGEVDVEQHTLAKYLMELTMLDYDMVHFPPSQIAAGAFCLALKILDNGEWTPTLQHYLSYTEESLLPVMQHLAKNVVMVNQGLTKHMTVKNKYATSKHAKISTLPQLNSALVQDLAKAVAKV

By IC50 is commonly meant the concentration at which inhibition is half-maximal. In the case of `C[C@@H]1CCC#Cc2cc(ccn2)Nc2cc(n[nH]2)[C@H]2CC[C@H](C2)OC(=O)N1` [Compound 137, (1^1S,1^3R,2^4Z,9R)-9-methyl-2^1H-12-oxa-3,10-diaza-4(4,2)-pyridina-2(3,5)-pyrazola-1(1,3)-cyclopentanacyclododecaphan-5-yn-11-one], the IC50 at CDK9-CYCLIN T1 (ADP-Glo, 1000 μM ATP, Table 19) is over 500 nM; on CDK1-CYCLIN B (ADP-Glo, 1000 μM ATP, Table 19), 100 to 500 nM; in assay [1] it was 50 to 250 nM; in the assay with CCNE1-normal SKOV3 cells, over 1250 nM; in assay [2], 10 to 50 nM; at CDK2-CYCLIN E1 (ADP-Glo, 1000 μM ATP, Table 19), 10 to 50 nM. Moreover, the IC50 was over 500 nM at CDK4-CYCLIN D1 (ADP-Glo, 1000 μM ATP, Table 19) and over 500 nM on CDK6-CYCLIN D3 (ADP-Glo, 1000 μM ATP, Table 19). Besides, the “CDK2 Fold selectivity, CDK9” value on CDK9-CYCLIN T1 (Table 20) was “D (D, >20 and ≤50)”. The “CDK2 Fold selectivity, CDK1” value on CDK1-CYCLIN B (Table 20) was “E (E, <20)”. Further, the “CDK2 Fold selectivity, CDK4” value at CDK4-CYCLIN D1 (Table 20) is recorded as “E (E, <20)”. The “CDK2 Fold selectivity, CDK6” value on CDK6-CYCLIN D3 (Table 20) was “D (D, >20 and ≤50)”.

Take `O=C1NC23CC(CCCc4cc(ccn4)Nc4cc(n[nH]4)[C@H]4CC[C@H](C4)O1)(C2)C3` [Compound 96, (1^1S,1^3R,Z)-2^1H-11-oxa-3,9-diaza-4(4,2)-pyridina-2(3,5)-pyrazola-8(1,3)-bicyclo[1.1.1]pentana-1(1,3)-cyclopentanacycloundecaphan-10-one]: the IC50 was at most 10 nM at CDK9-CYCLIN T1 (ADP-Glo, 1000 μM ATP, Table 13); at most 10 nM on CDK1-CYCLIN B (ADP-Glo, 1000 μM ATP, Table 13); 2 to 10 nM in assay [1]; 50 to 250 nM in the assay with CCNE1-normal SKOV3 cells; at most 2 nM in assay [2]; at most 10 nM on CDK2-CYCLIN E1 (ADP-Glo, 1000 μM ATP, Table 13). Besides, the IC50 on CDK4-CYCLIN D1 (ADP-Glo, 1000 μM ATP, Table 13) lay within 50 to 100 nM; on CDK6-CYCLIN D3 (ADP-Glo, 1000 μM ATP, Table 13), 10 to 50 nM. At CDK9-CYCLIN T1 (Table 14), the “CDK2 Fold selectivity, CDK9” value is “E (E, <20)”. Besides, the “CDK2 Fold selectivity, CDK1” value at CDK1-CYCLIN B (Table 14) was “E (E, <20)”. For the same molecule, the “CDK2 Fold selectivity, CDK4” value at CDK4-CYCLIN D1 (Table 14) is “D (D, >20 and ≤50)”. Moreover, the “CDK2 Fold selectivity, CDK6” value on CDK6-CYCLIN D3 (Table 14) was “E (E, <20)”.

For `C[C@H]1CC(F)(F)COc2cc(ccn2)Nc2[nH]nc(c2F)[C@H]2CC[C@H](C2)OC(=O)N1` [Compound 244, (1^1S,1^3R,9S,E)-2^4,7,7-trifluoro-9-methyl-2^1H-5,12-dioxa-3,10-diaza-4(4,2)-pyridina-2(3,5)-pyrazola-1(1,3)-cyclopentanacyclododecaphan-11-one], the IC50 is over 500 nM on CDK9-CYCLIN T1 (setting [3]); 100 to 500 nM on CDK1-CYCLIN B (setting [3]); 50 to 250 nM in assay [1]; over 1250 nM in the assay with CCNE1-normal SKOV3 cells; 10 to 50 nM in assay [2]; at most 10 nM at CDK2-CYCLIN E1 (setting [3]). The IC50 at CDK4-CYCLIN D1 (setting [3]) and at CDK6-CYCLIN D3 (setting [3]) was over 500 nM throughout. Moreover, the “CDK2 Fold selectivity against CDK9” value on CDK9-CYCLIN T1 (Table 38, fold selectivity for CDK2 over CDK9, recombinant CDK kinases) is given as “A (A, ≥500)”. Further, the “CDK2 Fold selectivity against CDK1” value at CDK1-CYCLIN B (Table 38, fold selectivity for CDK2 over CDK1, recombinant CDK kinases) was “D (D, >20 and ≤50)”. Moreover, the “CDK2 Fold selectivity against CDK4” value at CDK4-CYCLIN D1 (Table 38, fold selectivity for CDK2 over CDK4, recombinant CDK kinases) is “B (B, >100 and ≤500)”. In addition, the “CDK2 Fold selectivity against CDK6” value at CDK6-CYCLIN D3 (Table 38, fold selectivity for CDK2 over CDK6, recombinant CDK kinases) was “B (B, >100 and ≤500)”.
